# According to patent publication US10765114B2, “4-amino-6-(pyridyl and 2-substitutedphenyl)-picolinates and 6-amino-2-(pyridyl and 2-substitutedphenyl)-pyrimidine-4-carboxylates and their use as herbicides” (Dow AgroSciences LLC, priority 2013, dated 2020):
# Tested on: SEBEX: hemp sesbania, Sesbania exaltata
# Experiment: Postemergence Herbicidal Activity in Direct Seeded Rice
# Type: in vivo
# Settings: 35 g ai/ha, postemergence, direct seeded rice
# Excerpt: (§1) Seeds or nutlets of the desired test plant species were planted in a soil matrix prepared by mixing a loam soil (43 percent silt, 19 percent clay, and 38 percent sand, with a pH of about 8.1 and an organic matter content of about 1.5 percent) and river sand in an 80 to 20 ratio. The soil matrix was contained in plastic pots with a surface area of 139.7 cm^2. When required to ensure good germination and healthy plants, a fungicide treatment and/or other chemical or physical treatment was applied. The plants were grown for 10-17 days in a greenhouse with an approximate 14-h photoperiod which was maintained at about 29° C. during the day and 26° C. during the night. Nutrients and water were added on a regular basis and supplemental lighting was provided with overhead metal halide 1000-Watt lamps as necessary. The plants were employed for testing when they reached the second or third true leaf stage.
# (§2) A weighed amount, determined by the highest rate to be tested, of each test compound was placed in 25 mL glass vials and dissolved in a volume of 97:3 v/v acetone-DMSO to obtain 12× stock solutions. […] The concentrated stock solutions were added to the spray solutions so that the final acetone and DMSO concentrations were 16.2% and 0.5%, respectively. Spray solutions were diluted to the appropriate final concentrations with the addition of 10 mL of an aqueous mixture of 1.5% (v/v) Agri-dex crop oil concentrate. The final spray solutions contained 1.25% (v/v) Agri-dex crop oil concentrate. Compound requirements are based upon a 12 mL application volume at a rate of 187 L/ha. Formulated compounds were applied to the plant material with an overhead Mandel track sprayer equipped with 8002E nozzles calibrated to deliver 187 L/ha over an application area of 0.503 square meters (m^2) at a spray height of 18 inches (43 cm) above average plant canopy height. Control plants were sprayed in the same manner with the solvent blank.
# (§3) The treated plants and control plants were placed in a greenhouse as described above and watered by sub-irrigation to prevent wash-off of the test compounds. After 20-22 days, the condition of the test plants, compared with that of the untreated plants, was determined visually and scored on a scale of 0 to 100 percent where 0 corresponds to no injury and 100 corresponds to complete kill and presented as indicated in Table A.
# (§4) By applying the well-accepted probit analysis as described by J. Berkson in Journal of the American Statistical Society, 48, 565 (1953) and by D. Finney in “Probit Analysis” Cambridge University Press (1952), herbicidal injury of a specific compound at various rates can be used to calculate GR20, GR50, GR80 and GR90 values, which are defined as growth reduction factors that correspond to the effective dose of herbicide required to provide plant growth reduction (GR) of 20 percent, 50 percent, 80 percent and 90 percent, respectively. Probit analysis was applied to data collected from multiple dose rates of individual compounds utilizing the procedures explained in the following examples. The analysis of those dose rates is captured in the following tables
row,Structure (SMILES),"Visual Growth Reduction (%) 21 Days After Application, SEBEX"
1,COC(=O)c1nc(-c2ccc(C(F)(F)F)nc2)c(C)c(N)c1Cl [Compound 32],A (95-100)
2,Nc1c(Cl)c(C(=O)O)nc(-c2ccc(C(F)(F)F)nc2)c1Cl [Compound 33],A (95-100)

# Same assay, conditions: 70 g ai/ha, postemergence, direct seeded rice
row,Structure (SMILES),"Visual Growth Reduction (%) 21 Days After Application, SEBEX"
1,COC(=O)c1nc(-c2ccc(C(F)(F)F)nc2)c(C)c(N)c1Cl [Compound 32],A (95-100)
2,Nc1c(Cl)c(C(=O)O)nc(-c2ccc(C(F)(F)F)nc2)c1Cl [Compound 33],A (95-100)

# Same assay, conditions: Growth reduction of 50% of plant growth, probit analysis
row,Structure (SMILES),"GR50, SEBEX [g ai/ha]"
1,COC(=O)c1nc(-c2ccc(C(F)(F)F)nc2)c(C)c(N)c1Cl [Compound 32],3
2,Nc1c(Cl)c(C(=O)O)nc(-c2ccc(C(F)(F)F)nc2)c1Cl [Compound 33],1

# Same assay, conditions: Growth reduction of 80% of plant growth, probit analysis
row,Structure (SMILES),"GR80, SEBEX [g ai/ha]"
1,COC(=O)c1nc(-c2ccc(C(F)(F)F)nc2)c(C)c(N)c1Cl [Compound 32],9
2,Nc1c(Cl)c(C(=O)O)nc(-c2ccc(C(F)(F)F)nc2)c1Cl [Compound 33],1

# Tested on: SCPJU: Japanese bulrush, Schoenoplectus juncoides
# Experiment: as above
# Type: in vivo
# Settings: 35 g ai/ha, postemergence, direct seeded rice
# Excerpt: as §1, §2, §3, §4
row,Structure (SMILES),"Visual Growth Reduction (%) 21 Days After Application, SCPJU"
1,COC(=O)c1nc(-c2ccc(C(F)(F)F)nc2)c(C)c(N)c1Cl [Compound 32],A (95-100)
2,Nc1c(Cl)c(C(=O)O)nc(-c2ccc(C(F)(F)F)nc2)c1Cl [Compound 33],A (95-100)

# Same assay, conditions: 70 g ai/ha, postemergence, direct seeded rice
row,Structure (SMILES),"Visual Growth Reduction (%) 21 Days After Application, SCPJU"
1,COC(=O)c1nc(-c2ccc(C(F)(F)F)nc2)c(C)c(N)c1Cl [Compound 32],A (95-100)
2,Nc1c(Cl)c(C(=O)O)nc(-c2ccc(C(F)(F)F)nc2)c1Cl [Compound 33],A (95-100)

# Same assay, conditions: Growth reduction of 50% of plant growth, probit analysis
row,Structure (SMILES),"GR50, SCPJU [g ai/ha]"
1,COC(=O)c1nc(-c2ccc(C(F)(F)F)nc2)c(C)c(N)c1Cl [Compound 32],<17.5
2,Nc1c(Cl)c(C(=O)O)nc(-c2ccc(C(F)(F)F)nc2)c1Cl [Compound 33],<17.5

# Same assay, conditions: Growth reduction of 80% of plant growth, probit analysis
row,Structure (SMILES),"GR80, SCPJU [g ai/ha]"
1,COC(=O)c1nc(-c2ccc(C(F)(F)F)nc2)c(C)c(N)c1Cl [Compound 32],<17.5
2,Nc1c(Cl)c(C(=O)O)nc(-c2ccc(C(F)(F)F)nc2)c1Cl [Compound 33],<17.5

# Tested on: BRAPP: broadleaf signalgrass, Brachiaria platyphylla
# Experiment: as above
# Type: in vivo
# Settings: 35 g ai/ha, postemergence, direct seeded rice
# Excerpt: as §1, §2, §3, §4
row,Structure (SMILES),"Visual Growth Reduction (%) 21 Days After Application, BRAPP"
1,COC(=O)c1nc(-c2ccc(C(F)(F)F)nc2)c(C)c(N)c1Cl [Compound 32],B (85-94)
2,Nc1c(Cl)c(C(=O)O)nc(-c2ccc(C(F)(F)F)nc2)c1Cl [Compound 33],A (95-100)

# Same assay, conditions: 70 g ai/ha, postemergence, direct seeded rice
row,Structure (SMILES),"Visual Growth Reduction (%) 21 Days After Application, BRAPP"
1,COC(=O)c1nc(-c2ccc(C(F)(F)F)nc2)c(C)c(N)c1Cl [Compound 32],B (85-94)
2,Nc1c(Cl)c(C(=O)O)nc(-c2ccc(C(F)(F)F)nc2)c1Cl [Compound 33],A (95-100)

# Same assay, conditions: Growth reduction of 50% of plant growth, probit analysis
row,Structure (SMILES),"GR50, BRAPP [g ai/ha]"
1,COC(=O)c1nc(-c2ccc(C(F)(F)F)nc2)c(C)c(N)c1Cl [Compound 32],14
2,Nc1c(Cl)c(C(=O)O)nc(-c2ccc(C(F)(F)F)nc2)c1Cl [Compound 33],3

# Same assay, conditions: Growth reduction of 80% of plant growth, probit analysis
row,Structure (SMILES),"GR80, BRAPP [g ai/ha]"
1,COC(=O)c1nc(-c2ccc(C(F)(F)F)nc2)c(C)c(N)c1Cl [Compound 32],35
2,Nc1c(Cl)c(C(=O)O)nc(-c2ccc(C(F)(F)F)nc2)c1Cl [Compound 33],11

# Tested on: CYPSS: sedge including small-flower flatsedge (Cyperus difformis), yellow nutsedge (Cyperus esculentus), rice flatsedge (Cyperus iria)
# Experiment: as above
# Type: in vivo
# Settings: 35 g ai/ha, postemergence, direct seeded rice
# Excerpt: as §1, §2, §3, §4
row,Structure (SMILES),"Visual Growth Reduction (%) 21 Days After Application, CYPSS"
1,COC(=O)c1nc(-c2ccc(C(F)(F)F)nc2)c(C)c(N)c1Cl [Compound 32],A (95-100)
2,Nc1c(Cl)c(C(=O)O)nc(-c2ccc(C(F)(F)F)nc2)c1Cl [Compound 33],A (95-100)

# Same assay, conditions: 70 g ai/ha, postemergence, direct seeded rice
row,Structure (SMILES),"Visual Growth Reduction (%) 21 Days After Application, CYPSS"
1,COC(=O)c1nc(-c2ccc(C(F)(F)F)nc2)c(C)c(N)c1Cl [Compound 32],A (95-100)
2,Nc1c(Cl)c(C(=O)O)nc(-c2ccc(C(F)(F)F)nc2)c1Cl [Compound 33],A (95-100)

# Same assay, conditions: Growth reduction of 50% of plant growth, probit analysis
row,Structure (SMILES),"GR50, CYPSS [g ai/ha]"
1,COC(=O)c1nc(-c2ccc(C(F)(F)F)nc2)c(C)c(N)c1Cl [Compound 32],1
2,Nc1c(Cl)c(C(=O)O)nc(-c2ccc(C(F)(F)F)nc2)c1Cl [Compound 33],4

# Same assay, conditions: Growth reduction of 80% of plant growth, probit analysis
row,Structure (SMILES),"GR80, CYPSS [g ai/ha]"
1,COC(=O)c1nc(-c2ccc(C(F)(F)F)nc2)c(C)c(N)c1Cl [Compound 32],2
2,Nc1c(Cl)c(C(=O)O)nc(-c2ccc(C(F)(F)F)nc2)c1Cl [Compound 33],7

# Tested on: ORYSS: Oryza sativa
# Experiment: as above
# Type: in vivo
# Settings: 35 g ai/ha, postemergence, direct seeded rice
# Excerpt: as §1, §2, §3, §4
row,Structure (SMILES),"Visual Growth Reduction (%) 21 Days After Application, ORYSS"
1,COC(=O)c1nc(-c2ccc(C(F)(F)F)nc2)c(C)c(N)c1Cl [Compound 32],G (0-29)
2,Nc1c(Cl)c(C(=O)O)nc(-c2ccc(C(F)(F)F)nc2)c1Cl [Compound 33],D (60-74)

# Same assay, conditions: 70 g ai/ha, postemergence, direct seeded rice
row,Structure (SMILES),"Visual Growth Reduction (%) 21 Days After Application, ORYSS"
1,COC(=O)c1nc(-c2ccc(C(F)(F)F)nc2)c(C)c(N)c1Cl [Compound 32],F (30-44)
2,Nc1c(Cl)c(C(=O)O)nc(-c2ccc(C(F)(F)F)nc2)c1Cl [Compound 33],C (75-84)

# Same assay, conditions: Growth reduction of 20% of plant growth, probit analysis
row,Structure (SMILES),"GR20, ORYSS [g ai/ha]"
1,COC(=O)c1nc(-c2ccc(C(F)(F)F)nc2)c(C)c(N)c1Cl [Compound 32],36
2,Nc1c(Cl)c(C(=O)O)nc(-c2ccc(C(F)(F)F)nc2)c1Cl [Compound 33],8

# Tested on: ECHSS: including barnyardgrass, (Echinochloa crus-galli), junglerice, (Echinochloa colonum)
# Experiment: as above
# Type: in vivo
# Settings: 35 g ai/ha, postemergence, direct seeded rice
# Excerpt: as §1, §2, §3, §4
row,Structure (SMILES),"Visual Growth Reduction (%) 21 Days After Application, ECHSS"
1,COC(=O)c1nc(-c2ccc(C(F)(F)F)nc2)c(C)c(N)c1Cl [Compound 32],B (85-94)
2,Nc1c(Cl)c(C(=O)O)nc(-c2ccc(C(F)(F)F)nc2)c1Cl [Compound 33],C (75-84)

# Same assay, conditions: 70 g ai/ha, postemergence, direct seeded rice
row,Structure (SMILES),"Visual Growth Reduction (%) 21 Days After Application, ECHSS"
1,COC(=O)c1nc(-c2ccc(C(F)(F)F)nc2)c(C)c(N)c1Cl [Compound 32],A (95-100)
2,Nc1c(Cl)c(C(=O)O)nc(-c2ccc(C(F)(F)F)nc2)c1Cl [Compound 33],A (95-100)

# Same assay, conditions: Growth reduction of 50% of plant growth, probit analysis
row,Structure (SMILES),"GR50, ECHSS [g ai/ha]"
1,COC(=O)c1nc(-c2ccc(C(F)(F)F)nc2)c(C)c(N)c1Cl [Compound 32],21
2,Nc1c(Cl)c(C(=O)O)nc(-c2ccc(C(F)(F)F)nc2)c1Cl [Compound 33],1

# Same assay, conditions: Growth reduction of 80% of plant growth, probit analysis
row,Structure (SMILES),"GR80, ECHSS [g ai/ha]"
1,COC(=O)c1nc(-c2ccc(C(F)(F)F)nc2)c(C)c(N)c1Cl [Compound 32],35
2,Nc1c(Cl)c(C(=O)O)nc(-c2ccc(C(F)(F)F)nc2)c1Cl [Compound 33],1

# Tested on: LEFSS: sprangletop including Chinese sprangletop (Leptochloa chinensis), green sprangletop (Leptochloa dubia)
# Experiment: as above
# Type: in vivo
# Settings: 35 g ai/ha, postemergence, direct seeded rice
# Excerpt: as §1, §2, §3, §4
row,Structure (SMILES),"Visual Growth Reduction (%) 21 Days After Application, LEFSS"
1,COC(=O)c1nc(-c2ccc(C(F)(F)F)nc2)c(C)c(N)c1Cl [Compound 32],F (30-44)
2,Nc1c(Cl)c(C(=O)O)nc(-c2ccc(C(F)(F)F)nc2)c1Cl [Compound 33],E (45-59)

# Same assay, conditions: 70 g ai/ha, postemergence, direct seeded rice
row,Structure (SMILES),"Visual Growth Reduction (%) 21 Days After Application, LEFSS"
1,COC(=O)c1nc(-c2ccc(C(F)(F)F)nc2)c(C)c(N)c1Cl [Compound 32],E (45-59)
2,Nc1c(Cl)c(C(=O)O)nc(-c2ccc(C(F)(F)F)nc2)c1Cl [Compound 33],C (75-84)

# Same assay, conditions: Growth reduction of 50% of plant growth, probit analysis
row,Structure (SMILES),"GR50, LEFSS [g ai/ha]"
1,COC(=O)c1nc(-c2ccc(C(F)(F)F)nc2)c(C)c(N)c1Cl [Compound 32],59
2,Nc1c(Cl)c(C(=O)O)nc(-c2ccc(C(F)(F)F)nc2)c1Cl [Compound 33],30

# Same assay, conditions: Growth reduction of 80% of plant growth, probit analysis
row,Structure (SMILES),"GR80, LEFSS [g ai/ha]"
1,COC(=O)c1nc(-c2ccc(C(F)(F)F)nc2)c(C)c(N)c1Cl [Compound 32],133
2,Nc1c(Cl)c(C(=O)O)nc(-c2ccc(C(F)(F)F)nc2)c1Cl [Compound 33],77
